Test results reported in article PMC2916745 (Journal of medicinal chemistry, 2010).
Blank lines part the entries; values can stand above or below the molecule they belong to.

Tests used:
[1] = test system: tamoxifen-resistant breast cancer cells; details: cited from earlier work
[2] = cited from earlier work
human ERβ = human ERβ (Homo sapiens, UniProt Q92731); assay: competitive radiometric binding assay with [3H]estradiol, ERβ
human ERα = target: T1, human ERα (Homo sapiens, UniProt P03372); assay: competitive radiometric binding assay with [3H]estradiol, ERα; details: relative binding affinity, IC50[estradiol]/IC50[compound] × 100, estradiol = 100; 10 nM [3H]estradiol, 18-24 h at 0 °C; average ± range or SD
T1 sequence (P03372 1-595): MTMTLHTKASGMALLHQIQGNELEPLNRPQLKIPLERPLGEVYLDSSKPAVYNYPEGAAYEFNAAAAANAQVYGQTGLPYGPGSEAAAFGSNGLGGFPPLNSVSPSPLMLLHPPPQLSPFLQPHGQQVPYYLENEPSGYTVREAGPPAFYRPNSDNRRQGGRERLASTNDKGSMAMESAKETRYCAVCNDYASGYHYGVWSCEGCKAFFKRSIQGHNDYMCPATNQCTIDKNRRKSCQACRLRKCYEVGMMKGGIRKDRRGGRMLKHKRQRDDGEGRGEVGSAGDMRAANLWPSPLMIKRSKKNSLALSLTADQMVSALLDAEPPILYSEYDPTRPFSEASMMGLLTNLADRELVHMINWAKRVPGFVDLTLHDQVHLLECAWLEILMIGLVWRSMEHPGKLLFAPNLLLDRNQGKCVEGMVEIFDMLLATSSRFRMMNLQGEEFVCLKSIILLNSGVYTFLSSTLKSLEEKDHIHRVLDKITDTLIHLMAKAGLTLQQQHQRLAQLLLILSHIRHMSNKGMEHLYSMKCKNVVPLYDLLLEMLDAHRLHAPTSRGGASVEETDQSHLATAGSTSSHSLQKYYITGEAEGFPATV

[3] = test system: tamoxifen-resistant breast tumors; details: cited from earlier work
ERα-target genes = assay: real-time PCR analysis of ERα target genes in MCF-7 cells; type: cell-based, human; details: 1 μM compound, 1 nM E2, RNA level
[4] = Figure 6B, not fully reversed to control

Sequence of human ERβ (Q92731 whole entry): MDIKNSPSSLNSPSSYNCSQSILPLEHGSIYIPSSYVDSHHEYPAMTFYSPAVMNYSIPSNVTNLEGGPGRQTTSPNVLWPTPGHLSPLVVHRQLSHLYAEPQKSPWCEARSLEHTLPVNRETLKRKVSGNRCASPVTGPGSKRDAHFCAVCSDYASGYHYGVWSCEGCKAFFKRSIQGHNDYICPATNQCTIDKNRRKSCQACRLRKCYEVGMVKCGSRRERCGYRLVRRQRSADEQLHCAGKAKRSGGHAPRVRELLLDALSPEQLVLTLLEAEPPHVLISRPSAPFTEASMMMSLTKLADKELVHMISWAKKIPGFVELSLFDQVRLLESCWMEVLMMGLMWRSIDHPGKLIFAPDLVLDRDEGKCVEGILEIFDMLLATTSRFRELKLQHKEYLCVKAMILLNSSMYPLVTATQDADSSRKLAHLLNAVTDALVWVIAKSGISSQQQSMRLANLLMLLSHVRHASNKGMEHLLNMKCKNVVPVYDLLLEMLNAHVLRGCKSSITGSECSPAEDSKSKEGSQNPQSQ

Structure (SMILES): C[C@]12CC[C@@H]3c4ccc(O)cc4C[C@@H](CCCCCCCCC[S+]([O-])CCCC(F)(F)C(F)(F)F)[C@H]3[C@@H]1CC[C@@H]2O (some centres unmarked) [ICI 182,780]
growth of tamoxifen-resistant breast cancer cells [1]: capable of inhibiting | oral bioavailability [2]: poor

β/α (human ERβ; ratio of RBA values, >1 for higher affinity on ERβ than on ERα): 4.9 | RBA ERβ (human ERβ; relative binding affinity, IC50[estradiol]/IC50[compound] × 100, estradiol = 100, 10 nM [3H]estradiol, 18-24 h at 0 °C, average ± range or SD): 334 ± 54 | RBA ERα (human ERα): 68 ± 18
Structure (SMILES): CC(=O)Oc1ccc(C(=C2CCCCC2)c2ccc(OC(C)=O)cc2)cc1 [Compound 2, cyclofenil]

Structure (SMILES): CC/C(=C(\c1ccccc1)c1ccc(/C=C/C(=O)O)cc1)c1ccccc1 [Compound 1]
growth of tamoxifen-resistant breast tumors [3]: can inhibit

Structure (SMILES): CC/C(=C(\c1ccc(O)cc1)c1ccc(/C=C/C(=O)O)cc1)c1ccccc1 [Compound 4]
E2-mediated activation of the CA12 gene (ERα-target genes; Figure 6A): most effective | E2-mediated stimulation of the PR gene (ERα-target genes; Figure 6A): significantly blocked | E2-mediated stimulation of the pS2 gene (ERα-target genes; Figure 6A): significantly blocked | E2-mediated repression of BLNK gene expression (ERα-target genes; [4]): reduce | E2-mediated repression of ENC1 gene expression (ERα-target genes; [4]): reduce
